From patent US12319689B2, “Methyl- and trifluoromethyl-containing disubstituted sulfonamide selective BCL-2 inhibitor” (CHIA TAI TIANQING PHARMACEUTICAL GROUP CO., LTD., priority 2019, dated 2025) come the findings set out here.

The test system of data set [1] is RS4;11 cells. Kind of data set: Inhibition of proliferation of RS4;11 human acute lymphocytic leukemia cells (CCK-8). The data set is classed as cell-based. Particulars: 72 h compound exposure, CCK-8, 5% serum. The protocol: RS4;11 cells (from ATCC) in logarithmic growth phase and good cell condition were added to a centrifuge tube and centrifuged at 1500 rpm for 3 min in a low speed centrifuge. The supernatant was discarded, and 5 mL of complete medium (RPMI basic medium+10% FBS) was added using a pipette for cell resuspension. The cells were counted using a cell counter, diluted with complete medium to a cell density of 2×10^5 cells/mL, and an equivalent amount of RPMI basic medium was added to adjust the serum concentration to 5% and the cell density to 1×10^5 cells/mL for plate seeding. The cells were seeded on a 96-well plate at 100 μL/well using a pipettor, and incubated in an incubator at 37° C., 5% CO2 with saturated humidity. After 24 h of incubation, compounds were loaded using a nanoliter pipettor, 2 duplicate wells were set for each concentration, and cells without compound were used as negative controls. […] Inhibition rate (%)=(mean value of negative control group−mean value of experimental group)/(mean value of negative control group−mean value of blank group)×100%. A dose-response curve was fitted by four-parameter analysis, with the logarithm of compound concentration serving as abscissa and inhibition rate serving as ordinate, so that IC50 was calculated (Table 1).

Data set [2] deals with RS4;11 human acute lymphoblastic leukemia subcutaneous xenograft tumors. Kind of data set: RS4;11 human acute lymphoblastic leukemia mouse subcutaneous tumor xenograft model. The data set is classed as in vivo, NOD/SCID mice. Particulars: 25 mg/kg single intragastric dose; Day 12 after the end of administration. The procedure: SPF female NOD/SCID mice (Shanghai Lingchang Biotech Co., Ltd.) were inoculated subcutaneously at the right side armpit with 1×10^7 RS4;11 cells (ATCC). When the mean tumor volume reached about 180 mm^3, the mice were divided into 3 groups according to the tumor size: vehicle, compound 1-1 (25 mg/kg) and compound 3-1 (25 mg/kg). The day of grouping was determined as d0. On d1, a single intragastric dose at a volume of 10 mL/kg was administered, and the animals were observed.
The calculation formula for tumor volume: Tumor volume (mm^3)=½×(a×b^2) (where a represents long diameter and b represents short diameter).
Relative tumor proliferation rate (T/C %) refers to the percentage of the relative tumor volume or tumor weight of the treatment and control groups at a certain time point. The calculation formula is as follows: T/C %=TRTV/CRTV×100% (TRTV: mean relative tumor volume (RTV) for treatment group; CRTV: mean RTV for vehicle control group; RTV=TVt/TV0, where TV0 is the tumor volume at grouping, TVt is the tumor volume after treatment).
Tumor growth inhibition rate (TGI %) is calculated according to the following formula: TGI %=(1−T/C)×100%. (T and C are the relative tumor volume (RTV) or tumor weight (TW) at a particular time point for the treatment and control groups, respectively).
The calculation formula for weight change rate (WCR) (%) is: WCR=(Wtt−Wt0)/Wt0×100%, where Wt0 is the body weight of the animal at grouping (i.e., d0), Wtt is the body weight of the animal at each measurement.
All experimental results are expressed as mean±SD (mean±standard deviation). The relative tumor volume of the treatment group was compared with that of the control group for any significant difference by T tests, wherein p<0.05 indicates a significant difference, and p<0.01 indicates a very significant difference.

Data set [3] addresses T1, BCL-2/BAK (Homo sapiens, UniProt P10415).
T1 construct: purchased Cisbio 63ADK000CB01PEG
Kind of data set: Inhibitory activity for BCL-2/BAK binding (Cisbio BCL-2/BAK (BH3) binding assay kit). The protocol: 500 nM Tag1-BCL-2 protein stock solution and 20 μM Tag2-BAK protein stock solution were diluted to 5 nM and 120 nM respectively with dilution buffer in kit (name: BCL-2/BAK (BH3) BINDING ASSAY KITS, cat. No.: 63ADK000CB01PEG, from Cisbio). 5 μL of Tag1-BCL-2 protein diluent was added to each well, then test compounds dissolved with DMSO were added to the wells with a nanoliter pipettor, allowing the final compound concentrations to be 200 nM to 0.0488 nM (4-fold gradient for 7 concentrations in total). Blank control wells (without enzyme) and negative control wells (with enzyme, plus vehicle DMSO) were set, and 2 replicate wells were set. Finally, 5 μL of Tag2-BAK protein diluent was added to each well, and the mixture was mixed well by centrifugation and incubated at 25° C. for 15 min. 100× anti-Tag1-Eu^3+ and 100× anti-Tag2-XL665 were both diluted to 1× working concentration with the detection buffer in the kit. Anti-Tag1-Eu^3+ and anti-Tag2-XL665 were mixed well in a 1:1 ratio, and the mixture was added to wells at 5 μL/well, and incubated at 25° C. for 2 h or more. The plate was read using a PE Envision multi-functional microplate reader ([…], emission: 665 nm) and IC50 (shown in Table 2) was calculated by four-parameter fitting.

Data set [4] deals with T2, BCL-XL/BAK (Homo sapiens, UniProt Q07817).
T2 construct: purchased Cisbio 63ADK000CB04PEG
Kind of data set: Inhibitory activity for BCL-XL/BAK binding (Cisbio BCL-XL/BAK (BH3) binding assay kit). The protocol:
300 nM Tag1-BCL-XL protein stock solution and 10 μM Tag2-BAK protein stock solution were diluted to 2 nM and 80 nM respectively with dilution buffer in kit (name: BCL-XL/BAK (BH3) BINDING ASSAY KITS, cat. No.: 63ADK000CB04PEG, from Cisbio). 5 μL of Tag1-BCL-XL protein diluent was added to each well, then different test compounds dissolved with DMSO were added to the wells with a nanoliter pipettor, allowing the final compound concentrations to be 2000 nM to 0.488 nM (4-fold gradient for 7 concentrations in total). Blank control wells (without enzyme) and negative control wells (with enzyme, plus vehicle DMSO) were set, and 2 replicate wells were set. Finally, 5 μL of Tag2-BAK protein diluent was added to each well, and the mixture was mixed well by centrifugation and incubated at 25° C. for 15 min. 100× anti-Tag1-Eu^3+ and 100× anti-Tag2-XL665 were both diluted to 1× working concentration with the detection buffer in the kit. Anti-Tag1-Eu^3+ and anti-Tag2-XL665 were mixed well in a 1:1 ratio, and the mixture was added to wells at 5 μL/well, and incubated at 25° C. for 2 h or more. The plate was read using a PE Envision multi-functional microplate reader ([…], emission: 665 nm) and IC50 (shown in Table 2) was calculated by four-parameter fitting.

T1 sequence (P10415 whole entry): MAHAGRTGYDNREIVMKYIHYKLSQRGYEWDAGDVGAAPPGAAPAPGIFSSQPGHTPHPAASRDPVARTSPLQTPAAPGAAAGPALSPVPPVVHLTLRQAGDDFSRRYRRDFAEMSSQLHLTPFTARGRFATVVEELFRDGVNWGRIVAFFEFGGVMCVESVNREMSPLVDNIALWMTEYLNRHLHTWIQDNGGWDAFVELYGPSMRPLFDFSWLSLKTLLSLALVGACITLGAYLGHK
T2 sequence (Q07817 whole entry): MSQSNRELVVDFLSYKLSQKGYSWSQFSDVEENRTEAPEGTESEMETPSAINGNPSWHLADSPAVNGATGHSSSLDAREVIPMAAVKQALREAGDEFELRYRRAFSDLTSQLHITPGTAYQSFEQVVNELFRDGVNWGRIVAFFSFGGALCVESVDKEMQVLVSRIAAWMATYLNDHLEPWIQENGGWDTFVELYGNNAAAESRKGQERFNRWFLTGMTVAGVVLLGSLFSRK

In the case of `Cc1cc(C(F)(F)F)ccc1C1=C(CN2CCN(c3ccc(C(=O)NS(=O)(=O)c4ccc(NCC5CCOCC5)c([N+](=O)[O-])c4)c(Oc4cnc5[nH]ccc5c4)c3)CC2)CCC(C)(C)C1` [Compound 1-1, 4-(4-{[2-(2-methyl-4-trifluoromethylphenyl)-4,4-dimethylcyclohex-1-enyl]methyl}-piperazin-1-yl)-N-({3-nitro-4-[(tetrahydro-2H-pyran-4-ylmethyl)amino]phenyl}sulfonyl)-2-(1H-pyrrolo[2,3-b]pyridin-5-yloxy)-benzamide], it took 3.9 nM to reach half-maximal inhibition in data set [1] (IC50). In addition, in data set [2], the “Relative tumor volume (mean ± SD)” value amounted to 2.1 ± 0.6, the T/C worked out at 40.4%, the TGI turned out to be 59.6% and the “Tumor volume (mean ± SD)” value was 350 ± 80 mm^3. Moreover, the “Weight change rate (mean ± SD)” value in data set [2] amounted to 8.20 ± 3.58%.

On to `Cc1cc(C(F)(F)F)ccc1C1=C(CN2CCN(c3ccc(C(=O)NS(=O)(=O)c4ccc(NC[C@H]5COCCO5)c([N+](=O)[O-])c4)c(Oc4cnc5[nH]ccc5c4)c3)CC2)CCC(C)(C)C1` [Compound 3-1], for which the IC50 in data set [1] worked out at 1.9 nM. Also, the IC50 in data set [3] stood at 1.49 nM. Further, in data set [2], the “Relative tumor volume (mean ± SD)” value is 1.3 ± 0.8, the T/C came to 25.0%, the TGI was 75.0% and the “Tumor volume (mean ± SD)” value was 213 ± 93 mm^3. Moreover, the “Weight change rate (mean ± SD)” value in data set [2] stood at 5.61 ± 3.61%.

`CC(=O)N1CCO[C@H](CNc2ccc(S(=O)(=O)NC(=O)c3ccc(N4CCN(CC5=C(c6ccc(C(F)(F)F)cc6C)CC(C)(C)CC5)CC4)cc3Oc3cnc4[nH]ccc4c3)cc2[N+](=O)[O-])C1` [Compound 19-1, (R)-4-(4-{[2-(2-methyl-4-trifluoromethylphenyl)-4,4-dimethylcyclohex-1-enyl]methyl}-piperazin-1-yl)-N-({3-nitro-4-[((4-acetylmorpholin-2-yl)methyl)amino]phenyl}sulfonyl)-2-(1H-pyrrolo[2,3-b]pyridin-5-yloxy)-benzamide]: the IC50 in data set [1] was 3.4 nM; in data set [3], 0.97 nM.

Turning to `Cc1cc(C(F)(F)F)ccc1C1=C(CN2CCN(c3ccc(C(=O)NS(=O)(=O)c4ccc(NC[C@H]5CCCOC5)c([N+](=O)[O-])c4)c(Oc4cnc5[nH]ccc5c4)c3)CC2)CCC(C)(C)C1` [Compound 15-1, (R)-4-(4-{[2-(2-methyl-4-trifluoromethylphenyl)-4,4-dimethylcyclohex-1-enyl]methyl}-piperazin-1-yl)-N-({3-nitro-4-[((tetrahydropyran-3-yl)methyl)amino]phenyl}sulfonyl)-2-(1H-pyrrolo[2,3-b]pyridin-5-yloxy)-benzamide], the IC50 in data set [3] is 1.53 nM; in data set [4] it was 261 nM.

Turning to `Cc1cc(C(F)(F)F)ccc1C1=C(CN2CCN(c3ccc(C(=O)NS(=O)(=O)c4ccc(NC[C@@H]5COCCO5)c([N+](=O)[O-])c4)c(Oc4cnc5[nH]ccc5c4)c3)CC2)CCC(C)(C)C1` [Compound 2-1], the IC50 in data set [1] came out at 4.2 nM.

As to `COCC(=O)N1CCO[C@@H](CNc2ccc(S(=O)(=O)NC(=O)c3ccc(N4CCN(CC5=C(c6ccc(C(F)(F)F)cc6C)CC(C)(C)CC5)CC4)cc3Oc3cnc4[nH]ccc4c3)cc2[N+](=O)[O-])C1` [Compound 4-1], the IC50 worked out at 5.4 nM in data set [1] and 0.7 nM in data set [3].

For the molecule `Cc1cc(C(F)(F)F)ccc1C1=C(CN2CCN(c3ccc(C(=O)NS(=O)(=O)c4ccc(NC[C@@H]5CN(S(C)(=O)=O)CCO5)c([N+](=O)[O-])c4)c(Oc4cnc5[nH]ccc5c4)c3)CC2)CCC(C)(C)C1` [Compound 23-1, (R)-4-(4-{[2-(2-methyl-4-trifluoromethylphenyl)-4,4-dimethylcyclohex-1-enyl]methyl}-piperazin-1-yl)-N-({3-nitro-4-[((4-(methylsulfonyl)morpholin-2-yl)methyl)amino]phenyl}sulfonyl)-2-(1H-pyrrolo[2,3-b]pyridin-5-yloxy)-benzamide], the IC50 in data set [1] was determined as 2.5 nM; in data set [3] it was 1.1 nM.

Take `Cc1cc(C(F)(F)F)ccc1C1=C(CN2CCN(c3ccc(C(=O)NS(=O)(=O)c4ccc(NC[C@@H]5CCCO5)c([N+](=O)[O-])c4)c(Oc4cnc5[nH]ccc5c4)c3)CC2)CCC(C)(C)C1` [Compound 11-1, (S)-4-(4-{[2-(2-methyl-4-trifluoromethylphenyl)-4,4-dimethylcyclohex-1-enyl]methyl}-piperazin-1-yl)-N-({3-nitro-4-[((tetrahydrofuran-2-yl)methyl)amino]phenyl}sulfonyl)-2-(1H-pyrrolo[2,3-b]pyridin-5-yloxy)-benzamide]: the IC50 in data set [3] stood at 1.79 nM.

In data set [3], `Cc1cc(C(F)(F)F)ccc1C1=C(CN2CCN(c3ccc(C(=O)NS(=O)(=O)c4ccc(NC[C@H]5CN(C(=O)C(C)C)CCO5)c([N+](=O)[O-])c4)c(Oc4cnc5[nH]ccc5c4)c3)CC2)CCC(C)(C)C1` [Compound 20-1, (S)-4-(4-{[2-(2-methyl-4-trifluoromethylphenyl)-4,4-dimethylcyclohex-1-enyl]methyl}-piperazin-1-yl)-N-({3-nitro-4-[((4-isobutyrylmorpholin-2-yl)methyl)amino]phenyl}sulfonyl)-2-(1H-pyrrolo[2,3-b]pyridin-5-yloxy)-benzamide] showed a half-maximal inhibitory concentration (IC50) of 2.06 nM.

In the case of `CC(=O)N1CCO[C@@H](CNc2ccc(S(=O)(=O)NC(=O)c3ccc(N4CCN(CC5=C(c6ccc(C(F)(F)F)cc6C)CC(C)(C)CC5)CC4)cc3Oc3cnc4[nH]ccc4c3)cc2[N+](=O)[O-])C1` [Compound 18-1, (S)-4-(4-{[2-(2-methyl-4-trifluoromethylphenyl)-4,4-dimethylcyclohex-1-enyl]methyl}-piperazin-1-yl)-N-({3-nitro-4-[((4-acetylmorpholin-2-yl)methyl)amino]phenyl}sulfonyl)-2-(1H-pyrrolo[2,3-b]pyridin-5-yloxy)-benzamide], the results for the IC50 in data set [1] and in data set [3] were 5.5 nM and 1.54 nM, respectively.
